PMC6874179, “Development of Macrocycle Kinase Inhibitors for ALK2 Using Fibrodysplasia Ossificans Progressiva‐Derived Endothelial Cells” (JBMR Plus, 2019)
In brackets after ≈: the same amount, converted by molar mass. Where two headings read alike, the source gives them in different places.

Columns and labels:
[1] = target: T1, TBR2 (Homo sapiens, UniProt P37173); assay: DiscoverX Kd determination; type: binding
T1 construct: T7 phage fusion (or DNA tag for qPCR if made in HEK-293); purchased DiscoverX; host or cells: E. coli (T7 phage) or HEK-293
T1 sequence (P37173 23-567): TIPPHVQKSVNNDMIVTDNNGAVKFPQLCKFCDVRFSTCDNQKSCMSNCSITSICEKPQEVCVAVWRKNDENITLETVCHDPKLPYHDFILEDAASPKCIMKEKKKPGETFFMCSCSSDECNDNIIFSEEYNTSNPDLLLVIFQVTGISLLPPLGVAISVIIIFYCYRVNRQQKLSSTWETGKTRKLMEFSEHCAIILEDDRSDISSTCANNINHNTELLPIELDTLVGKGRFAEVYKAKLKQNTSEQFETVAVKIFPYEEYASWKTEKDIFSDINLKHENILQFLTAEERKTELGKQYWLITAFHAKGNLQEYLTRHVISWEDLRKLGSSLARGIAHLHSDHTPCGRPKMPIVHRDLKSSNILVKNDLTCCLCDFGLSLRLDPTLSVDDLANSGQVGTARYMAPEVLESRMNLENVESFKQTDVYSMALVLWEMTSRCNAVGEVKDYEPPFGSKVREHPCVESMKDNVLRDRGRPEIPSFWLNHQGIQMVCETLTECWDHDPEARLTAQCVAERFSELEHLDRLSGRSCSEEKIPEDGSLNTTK
Procedure: DiscoverX Kd determination: For most assays, kinase-tagged T7 phage strains were prepared in an E. coli host derived from the BL21 strain. E. coli were grown to log-phase and infected with T7 phage and incubated with shaking at 32°C until lysis. The lysates were centrifuged and filtered to remove cell debris. The remaining kinases were produced in HEK-293 cells and subsequently tagged with DNA for qPCR detection. […] The liganded beads were blocked with excess biotin and washed with blocking buffer (SeaBlock (Pierce), 1% BSA, 0.05% Tween 20, 1 mM DTT) to remove unbound ligand and to reduce non-specific binding. […] Kds were determined using an 11-point 3-fold compound dilution series with three DMSO control points. […] The compounds were then diluted directly into the assays such that the final concentration of DMSO was 0.9%. All reactions performed in polypropylene 384-well plate. Each was a final volume of 0.02 ml. […] The kinase concentration in the eluates was measured by qPCR. An 11-point 3-fold serial dilution of each test compound was prepared in 100% DMSO at 100x final test concentration and subsequently diluted to 1x in the assay (final DMSO concentration = 1%). Most Kds were determined using a compound top concentration = 30.000 nM. […] Binding constants (Kds) were calculated with a standard dose-response curve using the Hill equation: Response = Background + Signal – Background 1 + (KdHill Slope / DoseHill Slope). The Hill Slope was set to -1. Curves were fitted using a non-linear least square fit with the Levenberg-Marquardt algorithm.

[2] = Chromlog D; type: physicochemical
Text: Supplement JBM4-3-na-s005.docx, table 3: Table S3. Solubility and metabolic clearance of selected macrocyclic inhibitors. | column: Chromlog D

[3] = Solubility determination; type: physicochemical; details: kinetic from dmso stock, 2-hour equilibrium, room temperature
Procedure: Test compound from 5 mM DMSO stock solution were diluted to 250 µM either in 50 mM PBS pH 7.4 or FaSSIF pH 6.5 in triplicate. DMSO final concentration was 5%. After a 2-hour equilibrium at room temperature and under shaking, samples were centrifuged at 3000g for 10 min at room temperature. A calibration curve was prepared in LC mobile phase from the 5 mM DMSO stock solution. Samples and calibration curve were analyzed by LC with UV detection.

[4] = Microsomal incubations, rLM; type: in vitro ADME; details: rat, liver microsomes, pH 7.4; microsomes 0.5 mg/ml, 0.5 μM compound; read-out: Metabolic clearance rLM
[5] = test system: FOP ECFCs; assay: Osteogenic differentiation (mineralization) of FOP ECFCs; type: cell-based, human; details: osteogenic conditions, Alizarin Red; for Effect on activin A-induced osteogenic differentiation: activin A 50 ng/mL; for Effect on BMP-6-induced osteogenic differentiation: BMP-6 50 ng/mL
Procedure: For mineralization assays, 5 × 10^4 ECs were seeded into 48‐well plates and incubated in osteogenic medium containing 10^−8M/L dexamethasone, 0.2mM/L ascorbic acid, and 10mM/L β‐glycerolphosphate in the presence of BMP/ TGF‐β ligands for 28 days. The medium was refreshed every 4 days. Afterwards, cells were washed twice with PBS and fixed with 3.7% formaldehyde for 5 min. Next, cells were washed twice with distilled water; measurement of calcium deposition was performed by Alizarin Red solution (ARS) staining, as previously described.16 Precipitates, originated from three independent ARS assays, were dissolved using 10% cetylpyridinium chloride, and absorbance was measured at 570 nm. Representative pictures were obtained using a Leica DMIL LED microscope (Leica, Wetzlar, Germany) with 10× magnification.
Cells were incubated for 21 days in chondrogenic medium containing BMP‐6 or activin A (50 ng/mL) and LDN‐193189, OD36, or OD52 at 0.5μM, prior to Alcian Blue staining. (B) Quantification of Fig. 6 A by absorbance, after solubilization with guanidine hydrochloride. (C) Chondrogenic gene expression analysis of collagen 2 (Col2), Sox9, Matrix metalloproteinase 13 (Mmp13), and collagen X (Col X) in ATDC5 cells corresponding to (A). (D) Western blot of a representative clone of FOP endothelial colony‐forming cells (ECFCs) incubated with LDN‐193189, OD36, or OD52 (0.5μM) prior to stimulation with BMP‐6 (50 ng/mL) or activin A (50 ng/mL). (E) Expression of the BMP target genes ID1 and ID3 by qPCR in FOP ECFCs stimulated with BMP‐6 (50 ng/mL) or activin A (50 ng/mL) in the presence of the indicated compounds at 0.5μM. (F) Alizarin Red solution staining on a representative clone of FOP ECFCs incubated under osteogenic conditions with BMP‐6 (50 ng/mL) or activin A (50 ng/mL) and the indicated compounds. (G) Quantification of Fig. 6 F by absorbance, after solubilization with cetylpyridinium. (H) Osteogenic genes Collagen 1 alpha 1 (Col1a1), Runx2, and osterix (Osx) expression in a representative clone of FOP ECFCs incubated under osteogenic conditions with BMP‐6 (50 ng/mL) or activin A (50 ng/mL) and LDN‐193189, OD36, or OD52 (0.5 μM). *p < 0.05, **p < 0.01, ***p < 0.001.

[6] = PBS buffer, aqueous buffer, 50 mM PBS pH 7.4, 5% DMSO, read-out: Solubility in µM PBS
[7] = FaSSIF pH 6.5, 5% DMSO, read-out: Solubility in µM FaSSIF

c1ccc2c(-c3cnn4cc(-c5ccc(N6CCNCC6)cc5)cnc34)ccnc2c1 [LDN-193189, reference compound]
Kd [1]: 26 nM | chromatographic logD [2]: 2.7 | solubility at 2 h [3, 6]: 5 µM (≈ 2.03 µg/mL) | solubility at 2 h [3, 7]: 49 µM (≈ 19.9 µg/mL) | microsomal CLint at 0.5 μM [4]: 185 µL/min/mg | Effect on activin A-induced osteogenic differentiation [5]: inhibited

Clc1cc2cc(c1)-c1cnn3ccc(nc13)NCCOCCO2 [OD36]
Kd ([1]; read-out: Kd in nM TBR2): 680 nM | chromatographic logD [2]: 5.4 | solubility at 2 h [3, 6]: 2 µM (≈ 0.662 µg/mL) | solubility at 2 h [3, 7]: 212 µM (≈ 70.1 µg/mL) | microsomal CLint at 0.5 μM [4]: 74 µL/min/mg | Effect on BMP-6-induced osteogenic differentiation [5]: modest effect | Effect on activin A-induced osteogenic differentiation [5]: efficiently blocked

Cc1cc2cc(c1)-c1cnn3ccc(nc13)NCCNC(=O)CCN(C)C2 [OD52]
Kd ([1]; read-out: Kd in nM TBR2): 2500 nM | chromatographic logD [2]: 3.9 | solubility at 2 h [3, 6]: 140 µM (≈ 51 µg/mL) | solubility at 2 h [3, 7]: 240 µM (≈ 87.5 µg/mL) | microsomal CLint at 0.5 μM [4]: 32 µL/min/mg | Effect on BMP-6-induced osteogenic differentiation [5]: modest effect | Effect on activin A-induced osteogenic differentiation [5]: efficiently blocked
